Results: PubChem BioAssay (NCI)
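Interpolation was linear, between the two tested concentrations surrounding the appropriate level; five concentrations were tested over 48 hours in 96-well plates. GI50: concentration for 50% inhibition of growth. TGI: concentration producing complete growth inhibition.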

Assays:
Assay in all cases: growth of human tumour cells (NCI), 48 h
MOLT-4 leukemia = test system: MOLT-4 leukemia
CCRF-CEM leukemia = test system: CCRF-CEM leukemia
SNB-19 CNS = test system: SNB-19 CNS
EKVX NSCLC = test system: EKVX NSCLC
UACC-257 melanoma = test system: UACC-257 melanoma
UO-31 renal = test system: UO-31 renal
M14 melanoma = test system: M14 melanoma
NCI-H460 lung = test system: NCI-H460 lung
SN12C renal = test system: SN12C renal
SK-MEL-5 melanoma = test system: SK-MEL-5 melanoma

Row | SMILES | TGI (MOLT-4 leukemia) | TGI (CCRF-CEM leukemia) | TGI (SNB-19 CNS) | TGI (EKVX NSCLC) | TGI (UACC-257 melanoma) | TGI (UO-31 renal) | TGI (M14 melanoma) | TGI (NCI-H460 lung) | TGI (SN12C renal) | TGI (SK-MEL-5 melanoma) | GI50 (CCRF-CEM leukemia)
1 | Cn1c2ccccc2c2cc(N3CCCC3)c3c(c21)C(=O)N(c1ccccc1)C3=O | > 100 µM | > 100 µM | > 100 µM | > 100 µM | > 100 µM | > 100 µM | > 100 µM | > 100 µM | > 100 µM | > 100 µM | –
2 | COC(=O)[C@]1(c2cc3ccccc3[nH]2)CC2CN(C(=O)OCc3ccccc3)C1CC2=O (stereo partly specified) | 32.6 µM | > 100 µM | > 100 µM | 43.7 µM | > 100 µM | > 100 µM | 75.1 µM | 77.6 µM | 80.6 µM | 34.5 µM | –
3 | CCCCc1ccc(Nc2nc(Cl)c3c(ncn3C3CC(Oc4ccc(C)cc4)C(COc4ccc(C)cc4)O3)n2)cc1 (stereo unspecified) | > 100 µM | > 100 µM | > 100 µM | > 100 µM | > 100 µM | > 100 µM | > 100 µM | > 100 µM | > 100 µM | > 100 µM | –
4 | O=[N+]([O-])c1cc2ccc(N(CCO)CCO)nc2nc1N(CCO)CCO | > 100 µM | > 100 µM | > 100 µM | > 100 µM | > 100 µM | > 100 µM | > 100 µM | > 100 µM | > 100 µM | > 100 µM | –
5 | COC(=O)C(Cc1ccc(N(C)C)cc1)(NC(=O)c1ccccc1)P(=O)(OC)OC (stereo unspecified) | > 100 µM | > 100 µM | > 100 µM | > 100 µM | > 100 µM | > 100 µM | > 100 µM | > 100 µM | > 100 µM | > 100 µM | –
6 | O=C(C/C(=N/O)C(F)(F)F)c1cccs1 | > 100 µM | > 100 µM | > 100 µM | > 100 µM | > 100 µM | > 100 µM | > 100 µM | > 100 µM | > 100 µM | > 100 µM | –
7 | Cc1cc2c(cc1C)C(=O)C1(C2)Cc2cc3c(cc2C1=O)CCC3 (stereo unspecified) | > 100 µM | > 100 µM | > 100 µM | > 100 µM | > 100 µM | > 100 µM | > 100 µM | > 100 µM | > 100 µM | > 100 µM | –
8 | Cc1ccc(N=Nc2c(O)ccc3cc(S(=O)(=O)O)ccc23)cc1 | > 100 µM | > 100 µM | > 100 µM | > 100 µM | > 100 µM | > 100 µM | > 100 µM | > 100 µM | > 100 µM | > 100 µM | –
9 | COc1ccc(NC(C(N)=O)c2cc3cc(Br)ccc3nc2Cl)cc1 (stereo unspecified) | 62.9 µM | > 100 µM | > 100 µM | > 100 µM | > 100 µM | > 100 µM | > 100 µM | > 100 µM | > 100 µM | > 100 µM | –
10 | COc1cc(Cc2cnc(N)nc2N)cc(OC)c1OCCCNc1ccc([N+](=O)[O-])cc1 | 8.66 µM | 35.2 µM | 27 µM | 32 µM | 25.9 µM | 26.5 µM | 19.2 µM | 26 µM | 41.4 µM | 18.9 µM | –
11 | O=c1[nH]nc(Nc2ccccc2)c2nnn(C3CCCCC3)c12 | > 100 µM | > 100 µM | > 100 µM | > 100 µM | > 100 µM | > 100 µM | > 100 µM | > 100 µM | > 100 µM | > 100 µM | –
12 | CCOC(=O)/C=C(\C(=O)OCC)n1cc(Cl)c(=O)n(CC(=O)OCC)c1=O | 6.05 µM | 36.1 µM | 39 µM | 30.9 µM | 10.2 µM | 3.27 µM | 10.2 µM | 51.1 µM | 28.8 µM | 29.1 µM | 16.5 µM
13 | Cc1cc(Nc2ccc(NS(C)(=O)=O)cc2)c2c(ccc3nccc32)[nH]1 | 11.8 µM | > 100 µM | 48.8 µM | > 100 µM | 34.7 µM | > 100 µM | 31.1 µM | 46.5 µM | 38.9 µM | 29.1 µM | –
14 | O=c1c2cnccc2cc2c3ccccc3ccn12 | 91.8 µM | > 100 µM | > 100 µM | > 100 µM | > 100 µM | > 100 µM | > 100 µM | > 100 µM | > 100 µM | > 100 µM | –
15 | O=C1CSC(c2ccc([N+](=O)[O-])cc2)N1c1ccc(-c2ccc(-n3c(-c4ccccc4)nc4ccccc4c3=O)cc2)cc1 (stereo unspecified) | > 100 µM | > 100 µM | > 100 µM | > 100 µM | > 100 µM | > 100 µM | > 100 µM | > 100 µM | > 100 µM | 62 µM | –
16 | C=C(C)[C@H]1C2=CC(C)=C(O2)[C@@H](O)[C@H](C(=C)C)CCC2=C[C@H]1OC2=O | > 100 µM | > 100 µM | > 100 µM | > 100 µM | > 100 µM | > 100 µM | > 100 µM | > 100 µM | > 100 µM | > 100 µM | –
17 | COC(=O)C1=C(O)CCCC(C2CCCCC(=O)C2C(=O)OC)=C1 (stereo unspecified) | > 100 µM | 89.3 µM | > 100 µM | > 100 µM | > 100 µM | > 100 µM | > 100 µM | 39.6 µM | > 100 µM | > 100 µM | –
18 | CN(CCCNC(=O)c1nn(C)c2c1Cc1ccccc1-2)CCCNC(=O)c1nn(C)c2c1Cc1ccccc1-2 | 24.4 µM | 10.9 µM | 26.4 µM | 39.2 µM | 30.1 µM | 5.58 µM | 14.5 µM | 37.6 µM | 33.8 µM | 29.8 µM | –
